From paper PMC7953584, “An Experimental Study on [^125I]I-pHLIP (Var7) for SPECT/CT Imaging of an MDA-MB-231 Triple-Negative Breast Cancer Mouse Model by Targeting the Tumor Microenvironment” (Molecular Imaging, 2021)
Residues, ends and D or L forms follow the SMILES beside them.

Assays:
[1] = test system: MDA-MB-231 tumor-bearing mice; test: Small-animal SPECT/CT imaging; type: in vivo, BALB/c nude mice; details: 1 and 2 h after injection; 3.7 MBq/200 μL tail vein; thyroid blocked with 0.1% KI
Method: A mouse model bearing a human breast cancer cell line, MDA-MB-231, was established. MDA-MB-231 cells were cultured using the conventional method. Cells were collected at the logarithmic growth phase and washed once with PBS. The cells were then diluted to prepare suspensions at a concentration of approximately 1 × 10^6 cells/mL, which were temporarily stored in an ice box. Female 4-week-old BALB/c nude mice (16-20 g) were selected. MDA-MB-231 cells were inoculated subcutaneously using a disposable insulin syringe inserted into the right lateral thighs of the nude mice. The number of inoculated cells in each nude mouse was approximately 0.1 mL. The nude mice were raised under specific pathogen-free (SPF) conditions.
Imaging was started when the diameter of the tumor grew to 0.8-1.0 cm. Three days before imaging, 3 nude mice began to drink 0.1% KI solution to block the thyroid gland until the end of the experiment. • The machine was calibrated daily • Anesthesia Induction. […] Imaging settings for the SPECT/CT and reconstruction are as follows: the time per frame was 10 min, voxel size was 0.8 mm, number of subsets was 32, and number of iterations was 15 • The injection time, injection dose, and residual dose were recorded according to the tables in the experiment

[2] = test system: MDA-MB-231 cells; test: Cell binding fraction (cellular uptake test); type: cell-based, human; details: for binding fraction B/(B + F) × 100%: 3.7 kBq per well, γ counter, mean ± SD
Method: The human breast cancer cell line MDA-MB-231 was purchased from Shanghai Institute of Biochemistry and Cell Biology, Chinese Academy of Sciences and cultured in L-15 medium containing 10% fetal bovine serum at 37°C without CO2.
• Cell Plating. After the MDA-MB-231 cells were grown to greater than 90% confluence, the cell concentration was adjusted to approximately 1.0 × 10^5 cells/mL, 1 mL of the cell suspension was added to each well of a 12-well plate, and cells were cultured overnight at 37°C in a cell incubator. • Drug Administration. At the logarithmic growth phase, the cells were treated with drugs on the day after attachment; 3.7 kBq of [^125I]I-pHLIP (Var7) (20 μL volume) was added to each well. The pH inside the wells was adjusted to 7.4 and 6.0, yielding two groups of cells according to the pH value. • After 10 min, 40 min, 1 h, and 2 h of culture without CO2, the supernatant was aspirated into a tube and washed with PBS of the corresponding pH (pH 7.4 and 6.0) twice. The wash solution was also added to the supernatant tube. The cells were completely digested with trypsin, after which the cell suspension was aspirated into a tube and washed twice with PBS; the wash solution was also added to the tube. The radioactive counts of the cell tube (B) and supernatant tube (F) were measured by a γ counter. The cell binding fraction of the marker was calculated as B/(B + F) × 100%

[3] = In vitro stability in mouse serum at 37°C (radiochemical purity); type: in vitro ADME; details: 50 μL probe + 100 μL serum, paper chromatography, mean ± SD
Method: The purity of [^125I]I-pHLIP (Var7) was determined by paper chromatography. Normal saline was used as the developing agent, and Xinhua Grade 1 chromatography paper was used as the stationary phase. An appropriate amount of [^125I]I-pHLIP (Var7) eluent was aspirated by a capillary pipette and spotted at the origin of the chromatographic filter paper. After drying, the paper was placed vertically into a test tube containing the developing agent; the unfolded chromatographic filter paper was removed, air dried, and cut at intervals of 1 cm. The radioactivity count was measured segment by segment to calculate the radiochemical purity.
The purified [^125I]I-pHLIP (Var7) was placed at 4°C, at room temperature (25°C) in PBS buffer, and at 37°C in mouse serum. The radiochemical purity at different time points was measured, and the stability was determined. • Two hundred microliters of purified [^125I]I-pHLIP (Var7) solution was placed at 4°C and at room temperature in PBS buffer. Radiochemical purity was determined immediately after purification and at 1, 2, 4, 8, and 24 h after purification • Fifty microliters of purified [^125I]I-pHLIP (Var7) solution was mixed with 100 μL of mouse serum and placed in a 37°C water bath. Radiochemical purity was determined immediately after mixing and at 1, 2, 4, 8, and 24 h after mixing

probe stability in serum (radiochemical purity) ([3]; 1 h): 97.8 ± 1.9%
probe stability in serum (radiochemical purity) ([3]; 2 h): 96.8 ± 1.0%
probe stability in serum (radiochemical purity) ([3]; 4 h): 94.5 ± 1.1%
probe stability in serum (radiochemical purity) ([3]; 8 h): 91.3 ± 2.6%
Structure (SMILES): CC(C)C[C@H](NC(=O)[C@H](CCC(=O)O)NC(=O)[C@H](CC(C)C)NC(=O)[C@H](CC(C)C)NC(=O)[C@H](CC(C)C)NC(=O)[C@@H](NC(=O)[C@H](CCC(=O)O)NC(=O)[C@@H](NC(=O)[C@@H]1CCCN1C(=O)[C@H](Cc1ccccc1)NC(=O)[C@H](CC(C)C)NC(=O)[C@H](Cc1c[nH]c2ccccc12)NC(=O)[C@H](CCC(=O)O)NC(=O)[C@H](CC(C)C)NC(=O)[C@H](Cc1ccc(O)c(I)c1)NC(=O)[C@H](CCCNC(=N)N)NC(=O)[C@H](C)NC(=O)[C@H](Cc1c[nH]c2ccccc12)NC(=O)[C@@H]1CCCN1C(=O)[C@H](CC(N)=O)NC(=O)[C@H](CCC(N)=O)NC(=O)[C@H](CCC(=O)O)NC(=O)[C@H](CCC(=O)O)NC(=O)[C@H](C)N)[C@@H](C)O)[C@@H](C)O)C(N)=O [[^125I]I-pHLIP (Var7)] (HELM PEPTIDE1{A.E.E.Q.N.P.W.A.R.[O=C([C@H](Cc1ccc(O)c(I)c1)N[*:1])[*:2]].L.E.W.L.F.P.T.E.T.L.L.L.E.L.[am]}$$$$V2.0)
tumor visibility on SPECT/CT [1]: clearly visible tumors
binding fraction B/(B + F) × 100% ([2]; pH 6.0, 10 min): 1.9 ± 0.1%
binding fraction B/(B + F) × 100% ([2]; pH 6.0, 40 min): 3.5 ± 0.1%
binding to MDA-MB-231 cells (in words) ([2]; pH 7.4): essentially did not bind
binding fraction B/(B + F) × 100% ([2]; pH 7.4, 10 min): 0.9 ± 0.1%
binding fraction B/(B + F) × 100% ([2]; pH 7.4, 40 min): 0.8 ± 0.1%
binding fraction B/(B + F) × 100% ([2]; pH 7.4, 1 h): 0.8 ± 0.1%
binding fraction B/(B + F) × 100% ([2]; pH 7.4, 2 h): 0.6 ± 0.1%
